In test [1] the test system is ERK-2 activity in PC12 cells. Description: MAP-kinase assay on ERK-2 immunocomplexes from tetracyclin-inducible PC12 cells (Tet-off PYK2-KM). It is filed as cell-based, rat. As to conditions: AG825 10 μM 1 hour, WT 100 nM 30 min or PYK2-KM expression (Tet−); for HRG-stimulated ERK-2 activity: 5 μg/ml HRG 20 min; for Basal ERK-2 activity: unstimulated.
The test system of test [2] is SHC tyrosine phosphorylation in PC 12 cells. Description: SHC tyrosine phosphorylation in PC 12 cells. It is filed as cell-based, rat. To be noted: 10 μM AG825, HRG stimulation. Here is the method: (§1) FIGS. 13, 14: PC 12 cells were left untreated or pretreated either with 10 μM AG825, 50 μM PD98059 or both and subsequently stimulated with HRG. Immunoprecipitations of HER2 (α-HER2) or of tyrosyl-phosphorylated proteins (α-PY) were probed with phosphotyrosine antibody (α-PY). […] Reprobing of the blot with HER2 antibody confirms equal loading of proteins. SHC is indicated by an arrow.

Test [3] relates to PYK2 tyrosine phosphorylation in SF767 gliomas. Description: PYK2 tyrosine phosphorylation in SF767 gliomas (immunoprecipitation, anti-phosphotyrosine western blot). It is filed as cell-based, human. To be noted: for HRG-induced tyrosine phosphorylation of PYK2: 5 μg/ml HRG 20 min, pretreatment with PP1 5 μM 30 min, AG825 10 μM 1 hour or Wortmannin 100 nM 30 min. Here is the method:
(§2) SF767 gliomas were pretreated with 5 μM PP1 for 30 minutes and stimulated either with 5 μg ml^−1 Heregulin (HRG, left panel) or 5 μM lonomycin (IONO, right panel) for 20 min and 5 min, respectively. b, PYK2 coprecipitation with HER3 depends on the HER2 kinase activity, and tyrosine phosphorylation of PYK2 is proportional to its binding to HER3. SF767 gliomas were pretreated with 10 μM AG825 for 1 hour and stimulated with 5 μg ml^−1 Heregulin for 20 min (HRG). Cell lysates were subjected to immunoprecipitation (IP) using polyclonal anti-PYK2 (α-PYK2) or monoclonal anti-HER3 (α-HER3) antibodies. Tyrosine phosphorylation level was analysed by western blotting (WB) with monoclonal anti-phosphotyrosine antibody (α-4G10) (a, upper panels, and b, upper panel). Equal loading of proteins was checked by reblotting with α-PYK2 and α-HER3 antibodies, respectively (a, lower panels, and b, middle and lower panels). PYK2 coprecipitating with HER3 was detected by probing the membrane with α-PYK2 antibody (b, middle panel, lanes 1-4). Unstimulated cells are indicated by NS.
SF763, SF767 or transfected HEK293 cells were either left untreated or were pretreated with PP1 (10 μM), AG825 (10 μM), Wortmannin (WT) (100 nM) and PD98059 (25 μM) for 30-60 min following stimulation with 5 μg/ml recombinant human HRG for 20 min or with 5 μM IONO for 5 min at 37° C. Upon HRG or IONO stimulation, the cells were lysed on ice in a lysis buffer (50 mM HEPES pH 7.5, containing 150 mM NaCl, 1 mM EDTA, 10% (v/v) glycerol, 1% (v/v) Triton X-100, 1 mM sodium fluoride, 1 mM phenylmethylsulfonyl fluoride, 1 mM sodium orthovanadate, 1 mM β-glycerolphosphate, […] aprotinin). Crude lysates were centrifuged at 12500 g for 20 min at 4° C. For immunoprecipitations, the appropriate antiserum and 30 μl of protein A-Sepharose (Pharmacia) was added to the cleared lysate and incubated for 3 h at 4° C. […]
(§3) Proteins were fractionated by SDS-PAGE and electrophoretically transferred to nitrocellulose filters. […] The substrate reaction was detected on Kodak X-Omat film. […]
(Immunoblotting shows a protein as a band on a membrane.)

Test [4] has as its system SHC tyrosine phosphorylation in SF767 gliomas. Description: SHC tyrosine phosphorylation in SF767 gliomas. It is filed as cell-based, human. To be noted: AG825 10 μM 1 hour, 5 μg/ml HRG 20 min. On the procedure: (§4) FIG. 5: PYK2 mediates mitogenicity upon HRG stimulation. a, b, SF767 gliomas were pretreated either with 10 μM AG825 for 1 hour or with 100 nM Wortmannin for 30 min (WT), and then stimulated with 5 μg ml^−1 Heregulin for 20 min (HRG). Tyrosine phosphorylation of SHC was elevated by HRG and attenuated by pretreatment with AG825, but not fully abrogated (a). The same holds also for ERK-2 activity, when cells were pretreated either with AG825 or with WT (b). Cell lysates were used for immunoprecipitation with polyclonal anti-SHC (α-SHC) (a), or polyclonal anti-Erk-2 (α-ERK-2) antibodies (b). α-SHC-immunocomplexes were blotted with a monoclonal anti-phosphotyrosine antibody (α-4G10) (a), whereas α-ERK-2 immunocomplexes were subjected to MAP-kinase assays (b). Phosphorylated MBP is indicated by an arrow. c, Tetracyclin-inducible pheochromocytoma PC12 cells, either stably expressing PYK2-KM (Tet−), or only endogenous PYK2 (Tet+), were pretreated either with 100 nm Wortmannin for 30 min (WT), or 10 μM AG825 for 1 hour prior to stimulation with 5 μg ml^−1 Heregulin for 20 min (HRG). Basal ERK-2 activity is independent of HER2 and Pl3-K, whereas the HRG-stimulated ERK-2 activity is dependent on HER2, Pl3-K and PYK2. […]
as §3

Test [5] relates to Pl3-K activity in PC12 cells. Description: Pl3-K assay on anti-phosphotyrosine immunoprecipitates from tetracyclin-inducible PC12 cells. It is filed as cell-based, rat. As to conditions: PC12 Tet-off; 5 μg/ml HRG 20 min; AG825 10 μM 1 hour or PYK2-KM expression (Tet−). Here is the method:
FIG. 6: PYK2 enhances Pl3-K activity upon HRG stimulation. a, Tetracyclin-inducible pheochromocytoma […], either stably expressing PYK2-KM (Tet−) or only endogenous PYK2 (Tet+), were pretreated either with 100 nm Wortmannin for 30 min (WT), or 10 μM AG825 for 1 hour prior to stimulation with 5 μg ml^−1 Heregulin for 20 min (HRG). Lysates were subjected to α-4G10 immunoprecipitation and Pl3-K assays were performed (see Methods section). Pl3-K activity is strongly dependent on PYK2 upon HRG stimulation, and is diminished by AG825. MAP-kinase and Pl3-kinase assays were performed as described previously (49, 50).

In test [6] the test system is HER2 tyrosine phosphorylation in PC 12 cells. Description: HER2 tyrosine phosphorylation in PC 12 cells. It is filed as cell-based, rat. To be noted: 10 μM AG825, HRG stimulation. Here is the method:
as §1

Test [7] relates to ERK-2 activity in SF767 gliomas. Description: MAP-kinase assay on ERK-2 immunocomplexes from SF767 gliomas. It is filed as cell-based, human. As to conditions: AG825 10 μM 1 hour or WT 100 nM 30 min, 5 μg/ml HRG 20 min. On the procedure: as §4, with “PYK2. Overexpression of PYK2-KM leads to a general attenuation of ERK-2 activity (compare Tet− with Tet+ bands).” for “PYK2.”
Test [8] relates to PYK2 coprecipitating with HER3 in SF767 gliomas. Description: PYK2 coprecipitation with HER3 in SF767 gliomas. As to conditions: AG825 10 μM 1 hour, with or without HRG. Type of test: cell-based, human. Here is the method:
as §2, with “NS. […]” for “NS.”
as §3

For another test, the system named is C6 gliomas. Description: Tumor invasion assay, C6 gliomas. It is filed as cell-based, rat. To be noted: 5 μg/ml HRG, 16 h, PD98059 25 μM 30 min pretreatment or retroviral PYK2-KM. On the procedure: (§5) FIG. 7: PYK2-KM inhibits tumor invasion upon HRG stimulation. a, C6 gliomas were retrovirally infected with either a control vector pLXSN (mock), PYK2, dominant negative PYK2 mutant PYK2-KM, or pretreated with a MEK1 inhibitor PD98059 (25 μM) for 30 min, and tumor invasion assays were performed (see Methods section). b, Invasion is supressed to the same extent by PD98059 and by overexpression of PYK2-KM (p>0.95). c, SF767 gliomas were retrovirally infected with pLXSN or PYK2-KM. d, Tumor invasion is supressed by overexpresssion of PYK2-KM in SF767 (p<0.008), and also in SF763 cell line (p<0.005), as shown by using the same assay. Representative bright-field micrographs of cells that migrated through the 8 μm filters in 16 h are shown. […]
(§6) Amphotrophic virus titer, which was generated by transient transfection of retrovirus expression plasmids into the virus producer cell line PhoenixA (ATCC), was determined by infecting NIH-3T3 cells with serial dilutions of retrovirus-containing, cell-free PhoenixA supernatants and counting the number of G418-resistant colonies. […]
(§7) Tumor invasion assay was performed as describ d previously (31). […] Following 16 h of incubation, non-invading cells were removed with cotton swabs, whereas invading cells were fixed, stained with Crystal violet and counted under bright-field illumination using an Axiovert135 inverted microscope (Zeiss). […]

Test [9] deals with ERK-2 phosphorylation in C6 glioma cells. Description: Phosphorylated ERK-2 in whole cell lysates of C6 glioma cells. As to conditions: in parallel to the tumor invasion assay, PD98059 or PYK2-KM. It is filed as cell-based, rat. Here is the method: (§8) FIGS. 15, 16: Whole cell lysates (WCL) of C6 glioma cells were prepared in parallel to the tumor invasion assay and the content of phosphorylated ERK-2 was assessed by probing with a specific phospho-ERK2 antibody (upper panel). To confirm equal loading of proteins the blot was reprobed with a pan-ERK antibody. (16) The same experimental procedure was used as in (15) for SF767 cells. Phosphorylated ERK-2 is indicated by an arrow. Dominant-negative PYK2-KM abrogates ERK-2 activity to the same extent as MEK-1 inhibitor PD98059.
(§9) Proteins were fractionated by SDS-PAGE and electrophoretically transferred to nitrocellulose filters. For immunoblot analysis, nitrocellulose filters were first incubated with mouse monoclonal or rabbit polyclonal primary antibodies for 3 h at 4° C. Next, a HRP-coupled goat anti-mouse or goat anti-rabbit secondary antibody was added (Biorad), followed by an enhanced chemoluminescence (ECL) substrate reaction (Amersham). The substrate reaction was detected on Kodak X-Omat film. Filters that were used more than once with different antibodies were stripped according to the manufacturer's protocol, blocked and reprobed.

The subject of test [10] is ERK-2 phosphorylation in SF767 cells. Description: Phosphorylated ERK-2 in whole cell lysates of SF767 cells. Type of test: cell-based, human. To be noted: in parallel to the tumor invasion assay, PD98059 or PYK2-KM. Here is the method: as §8, §9
Another test concerns SF763 cell line. Description: Tumor invasion assay, SF763 cell line. It is filed as cell-based, human. As to conditions: HRG, 16 h, retroviral infection with PYK2-KM. On the procedure: as §5, §6, §7
Another test has as its system SF767 gliomas. Description: Tumor invasion assay, SF767 gliomas. As to conditions: HRG, 16 h, retroviral infection with PYK2-KM. It is filed as cell-based, human. Here is the method:
as §5, §6, §7

In the case of `COc1cc(/C=C(\C#N)C(N)=O)cc(CSc2nc3ccccc3s2)c1O` [AG825], in [1], the “HRG-stimulated ERK-2 activity” value is on record as “attenuated” and the “Basal ERK-2 activity” value is recorded as “not influenced”. For the same compound, the “Tyrosine phosphorylation of SHC” value in test [2] is “completely inhibits”. The “HRG-induced tyrosine phosphorylation of PYK2” value in test [3] was “attenuated”. The “HRG-stimulated tyrosine-phosphorylation of SHC” value in [4] is “diminished, but not fully abrogated”. Also, the “Pl3-K activity upon HRG stimulation” value in [5] is reported as “diminished”. Also, in [6], the “Tyrosine phosphorylation of HER2” value was “completely inhibits”. For the same compound, the “HRG-stimulated ERK-2 activity” value in test [7] is on record as “diminished, but not fully abrogated”. Further, in [8], the “Amount of PYK2 that coprecipitates with HER3” value is given as “decreases”.
Regarding `COc1cccc(-c2cc(=O)c3ccccc3o2)c1N` [PD98059], the “Tumor invasion (invasiveness)” value with C6 gliomas was “strongly attenuated”. The ERK-2 phosphorylation result in [9] and in test [10] was “decrease” each time.
As to `Cc1ccc(-c2nn(C(C)(C)C)c3ncnc(N)c23)cc1` [PP1], in [3] (5 μM IONO 5 min, PP1 5 μM 30 min pretreatment), the “Ionomycin-induced tyrosine phosphorylation of PYK2” value is “dependent on c-src activity”. Further, in test [3], the “HRG-induced tyrosine phosphorylation of PYK2” value is “independent of c-src”.
Take “PYK2-KM: dominant negative, kinase-inactive PYK2 mutant K457M, expressed by retroviral infection or Tet-off system”: in test [1], the “HRG-stimulated ERK-2 activity” value is “abrogated”. For the same compound, the “Basal ERK-2 activity” value in [1] is given as “abrogated”. Moreover, the “Tumor invasion (invasive behaviour)” value in the test with SF763 cell line and with SF767 gliomas was “strong inhibition” in each case. In addition, in the test on C6 gliomas, the “Tumor invasion (invasiveness)” value was “comparable abrogation of the invasive phenotype”. For the same compound, the ERK-2 phosphorylation result in [9] and in [10] was “decrease” in each case. The “Pl3-K activity upon HRG stimulation” value in test [5] is “attenuates”.
